Measured values reported in PubChem BioAssay AID330 (DTP/NCI, 2004).
Where “and” joins values, the source holds several entries; their conditions need not be identical. Identical values can stand only once. Inconclusive results and toxic doses are left out. The calls were made as follows: active = survival T/C of 150% or more; inactive = T/C below 125% in these data.

Test system: P388 leukemia ip, CD2F1 mice, survival T/C
Experiment: NCI In Vivo Anticancer Drug Screen. Data for tumor model P388 Leukemia (intraperitoneal) in CD2F1 (CDF1) mice
Conditions: endpoint: median survival time, higher = longer survival
In short: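 Mice carrying the transplanted tumor received test compound or vehicle. Survival was recorded in each group, and the value is the treated-group measurement divided by that of the vehicle-treated control group.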

[1] = dose: 50.0 mg/kg/injection, schedule: Q01DX009 (ip), vehicle: saline
[2] = dose: 100.0 mg/kg/injection, schedule: Q01DX009 (ip), vehicle: saline
[3] = dose: 200.0 mg/kg/injection, schedule: Q01DX009 (ip), vehicle: saline
[4] = dose: 6.25 mg/kg/injection, schedule: Q01DX009 (ip), vehicle: Klucel (hydroxypropylcellulose) (HPC)
[5] = dose: 12.5 mg/kg/injection, schedule: Q01DX009 (ip), vehicle: Klucel (hydroxypropylcellulose) (HPC)
[6] = dose: 25.0 mg/kg/injection, schedule: Q01DX009 (ip), vehicle: Klucel (hydroxypropylcellulose) (HPC)
[7] = dose: 50.0 mg/kg/injection, schedule: Q01DX009 (ip), vehicle: Klucel (hydroxypropylcellulose) (HPC)
[8] = dose: 100.0 mg/kg/injection, schedule: Q01DX009 (ip), vehicle: Klucel (hydroxypropylcellulose) (HPC)
[9] = dose: 50.0 mg/kg/injection, schedule: Q01DX009 (ip), vehicle: saline with Tween-80
[10] = dose: 100.0 mg/kg/injection, schedule: Q01DX009 (ip), vehicle: saline with Tween-80
[11] = dose: 200.0 mg/kg/injection, schedule: Q01DX009 (ip), vehicle: saline with Tween-80
[12] = dose: 50.0 mg/kg/injection, schedule: Q01DX005 (ip), vehicle: saline with Tween-80
[13] = dose: 100.0 mg/kg/injection, schedule: Q01DX005 (ip), vehicle: saline with Tween-80
[14] = dose: 200.0 mg/kg/injection, schedule: Q01DX009 (ip), vehicle: Klucel (hydroxypropylcellulose) (HPC)

Measured: T/C

CN1C(c2ccccc2)C2CSCC(C2O)C1c1ccccc1 (stereo unspecified)
inactive: dose: 100.0 mg/kg/injection, schedule: Q04DX003 (ip), vehicle: suspension in saline 106 % of control | dose: 200.0 mg/kg/injection, schedule: Q04DX003 (ip), vehicle: suspension in saline 100 % of control | dose: 400.0 mg/kg/injection, schedule: Q04DX003 (ip), vehicle: suspension in saline 98 % of control

CC1=CC(=O)C(O)C2(C)C1CC1OC(=O)C(OC3OC(CO)C(O)C(O)C3O)C3C(C)C(O)C4(O)OCC13C42 (stereo unspecified)
inactive: dose: 0.25 mg/kg/injection, schedule: Q01DX005 (ip), vehicle: water 101 % of control | dose: 0.5 mg/kg/injection, schedule: Q01DX005 (ip), vehicle: water 102 % of control

CC(C)N1CCN(c2ccncc2S(=O)(=O)N2CCCC2)CC1
inactive: [1] 87 % of control | [2] 99 % of control | [3] 97 % of control

CC(C)(C)CC(C)(C)c1ccc(OCCOc2ccc(C(=O)NCCNC(=O)c3ccc4ccccc4c3O)cc2N)cc1
inactive: [4] 102 % of control | [5] 114 % of control | [6] 102 % of control | [7] 98 % of control | [8] 102 % of control

CCCCCCCCCCCCCCNC(=O)C[N+](C)(C)Cc1ccccc1
inactive: dose: 0.25 mg/kg/injection, schedule: Q01DX009 (ip), vehicle: saline with Tween-80 100 % of control | dose: 0.5 mg/kg/injection, schedule: Q01DX009 (ip), vehicle: saline with Tween-80 100 % of control | dose: 1.0 mg/kg/injection, schedule: Q01DX009 (ip), vehicle: saline with Tween-80 100 % of control

CCCCN(CCCC)S(=O)(=O)N1CCCCC1
inactive: dose: 50.0 mg/kg/injection, schedule: Q04DX002 (ip), vehicle: saline 105 % of control | dose: 100.0 mg/kg/injection, schedule: Q04DX002 (ip), vehicle: saline 98 % of control | dose: 200.0 mg/kg/injection, schedule: Q04DX002 (ip), vehicle: saline 96 % of control | dose: 400.0 mg/kg/injection, schedule: Q04DX002 (ip), vehicle: saline 100 % of control

NC(=S)N/N=C\C(=O)c1cccc([N+](=O)[O-])c1
inactive: [9] 94 % of control | [10] 105 % of control | [11] 96 % of control

O=C(CC(=O)C(F)(F)C(F)(F)C(F)(F)F)c1csc2ccccc12
inactive: dose: 100.0 mg/kg/injection, schedule: Q04DX003 (ip), vehicle: saline with Tween-80 109 % of control

CCCNC(C)(C)C(SS)c1ccc(C(F)(F)F)cc1 (stereo unspecified)
inactive: dose: 12.5 mg/kg/injection, schedule: Q01DX009 (ip), vehicle: other 100 % of control | dose: 25.0 mg/kg/injection, schedule: Q01DX009 (ip), vehicle: other 100 % of control | dose: 50.0 mg/kg/injection, schedule: Q01DX009 (ip), vehicle: other 109 % of control

CN1C(=O)C23SSC1(C)C(=O)N2c1ccccc1C3(C)C (stereo unspecified)
inactive: dose: 12.5 mg/kg/injection, schedule: Q01DX009 (ip), vehicle: suspension in saline 95 % of control | dose: 25.0 mg/kg/injection, schedule: Q01DX009 (ip), vehicle: suspension in saline 91 % of control | [1] 95 % of control

Clc1ccc(N=Cc2ccc(C=Nc3ccc(Cl)cc3)cc2)cc1
inactive: [4] 94 % of control | [5] 91 % of control | [6] 94 % of control

CC1(C)CC(NCCO)=CC(=S)N1
inactive: dose: 50.0 mg/kg/injection, schedule: Q01DX005 (ip), vehicle: Klucel (hydroxypropylcellulose) (HPC) 103 % of control | dose: 100.0 mg/kg/injection, schedule: Q01DX005 (ip), vehicle: Klucel (hydroxypropylcellulose) (HPC) 101 % of control | dose: 200.0 mg/kg/injection, schedule: Q01DX005 (ip), vehicle: Klucel (hydroxypropylcellulose) (HPC) 99 % of control

CCN(CC)c1ccc2[nH]c3c(C(N)=O)cc(=O)c(=O)c=3oc2c1
inactive: dose: 12.5 mg/kg/injection, schedule: Q01DX005 (ip), vehicle: saline with Tween-80 104 % of control and 107 % of control | dose: 25.0 mg/kg/injection, schedule: Q01DX005 (ip), vehicle: saline with Tween-80 104 % of control and 117 % of control | [12] 107 % of control and 120 % of control | [13] 113 % of control and 122 % of control and 123 % of control

CCOc1nc(N)nc(C)c1N=Nc1ccc(Br)cc1
inactive: dose: 60.0 mg/kg/injection, schedule: Q01DX005 (ip), vehicle: Klucel + Tween-80 100 % of control | dose: 120.0 mg/kg/injection, schedule: Q01DX005 (ip), vehicle: Klucel + Tween-80 104 % of control | dose: 240.0 mg/kg/injection, schedule: Q01DX005 (ip), vehicle: Klucel + Tween-80 99 % of control

CC1C(=O)C(C)C(c2ccccc2)NC1c1ccccc1 (stereo unspecified)
inactive: [1] 99 % of control | [2] 98 % of control | [3] 89 % of control

COC1/C=C/OC2(C)Oc3c(C)c(O)c4c(O)c(c(/C=N/n5c(=O)[nH]c6ccccc6c5=O)c(O)c4c3C2=O)NC(=O)/C(C)=C\C=C\C(C)C(O)C(C)C(O)C(C)C(OC(C)=O)C1C (stereo unspecified)
inactive: [9] 107 % of control | [10] 108 % of control | [11] 106 % of control

CC(C)OC(CCC#N)c1ccc(Cl)cc1 (stereo unspecified)
inactive: dose: 50.0 mg/kg/injection, schedule: Q04DX003 (ip), vehicle: other 105 % of control | dose: 100.0 mg/kg/injection, schedule: Q04DX003 (ip), vehicle: other 114 % of control | dose: 200.0 mg/kg/injection, schedule: Q04DX003 (ip), vehicle: other 99 % of control

CN1CCCC(Cl)(C(=O)c2ccccc2)C1 (stereo unspecified)
inactive: dose: 100.0 mg/kg/injection, schedule: Q04DX003 (ip), vehicle: saline 106 % of control | dose: 200.0 mg/kg/injection, schedule: Q04DX003 (ip), vehicle: saline 100 % of control

CC1NC(=O)NC(=O)C1(Cl)Cl (stereo unspecified)
inactive: [1] 101 % of control | [2] 99 % of control and 109 % of control | [3] 100 % of control and 109 % of control

CSc1nc2ccc(NC(C)=O)cc2s1
inactive: [5] 111 % of control | [6] 107 % of control | [7] 102 % of control and 87 % of control | [14] 90 % of control

[C-]#[N+]C1(c2ccccc2)C2CC3CC(C2)CC1C3 (stereo unspecified)
inactive: dose: 100.0 mg/kg/injection, schedule: Q04DX003 (ip), vehicle: Klucel (hydroxypropylcellulose) (HPC) 106 % of control | dose: 200.0 mg/kg/injection, schedule: Q04DX003 (ip), vehicle: Klucel (hydroxypropylcellulose) (HPC) 100 % of control | dose: 400.0 mg/kg/injection, schedule: Q04DX003 (ip), vehicle: Klucel (hydroxypropylcellulose) (HPC) 106 % of control

CCCCCCC(=O)/C=C/c1cc(OC)c(OC)cc1OC
inactive: [9] 100 % of control | [10] 94 % of control | [11] 96 % of control

CCOC(=O)C1CC(c2ccccc2)=NN1c1ccccc1 (stereo unspecified)
inactive: [6] 96 % of control | [7] 96 % of control | [8] 99 % of control | [14] 99 % of control | dose: 400.0 mg/kg/injection, schedule: Q01DX009 (ip), vehicle: Klucel (hydroxypropylcellulose) (HPC) 96 % of control

C=C=C(C)C(C(C)C)N1CCCC1 (stereo unspecified)
inactive: dose: 50.0 mg/kg/injection, schedule: Q01DX005 (ip), vehicle: saline 113 % of control | dose: 100.0 mg/kg/injection, schedule: Q01DX005 (ip), vehicle: saline 104 % of control

O=C1CCSC(=O)N1c1ccccc1
inactive: [12] 108 % of control | [13] 100 % of control | dose: 200.0 mg/kg/injection, schedule: Q01DX005 (ip), vehicle: saline with Tween-80 105 % of control

O=C(N/N=C/c1ccccc1[OH2+])c1ccncc1.O=C(N/N=C/c1ccccc1[OH2+])c1ccncc1.[Cl-].[Mn+2]
inactive: dose: 100.0 mg/kg/injection, schedule: Q04DX002 (ip), vehicle: Klucel (hydroxypropylcellulose) (HPC) 112 % of control | dose: 200.0 mg/kg/injection, schedule: Q04DX002 (ip), vehicle: Klucel (hydroxypropylcellulose) (HPC) 107 % of control | dose: 400.0 mg/kg/injection, schedule: Q04DX002 (ip), vehicle: Klucel (hydroxypropylcellulose) (HPC) 94 % of control

CC1OC(O[C@H]2C[C@](O)(C(C)O)Cc3c(O)c4c(c(O)c32)C(=O)c2c(O)cccc2C4=O)CC(NC=O)C1O (stereo partly specified)
inactive: dose: 0.16 mg/kg/injection, schedule: Q04DX003 (ip), vehicle: water 118 % of control | dose: 0.32 mg/kg/injection, schedule: Q04DX003 (ip), vehicle: water 113 % of control | dose: 0.33 mg/kg/injection, schedule: Q04DX003 (ip), vehicle: water 103 % of control | dose: 0.65 mg/kg/injection, schedule: Q04DX003 (ip), vehicle: water 111 % of control | dose: 1.29 mg/kg/injection, schedule: Q04DX003 (ip), vehicle: water 115 % of control | dose: 2.58 mg/kg/injection, schedule: Q04DX003 (ip), vehicle: water 123 % of control
